Source: patent US11440923B2, “Substituted macrocyclic indole derivatives” (Bayer Aktiengesellschaft, priority 2017, dated 2022)
Counter-ions that a name gives are not always drawn. Like-named read-outs stand apart in the source and are kept apart here. One block for each compound: values may come before it.

Columns and labels:
SUDHL10 cells = test: Induction of caspase-3/7 activity in SUDHL10 cells (Assay 4); assay type: cell-based
How it was run: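 Read-out: Caspase-Glo 3/7 luminescence (1 h, 37 °C) after cells, plated overnight, were treated with compounds for 3 h at 37 °C. Signal corrected for cell-free medium background and expressed relative to DMSO control mean.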

MCL-1 = MCL-1 (Homo sapiens (Human), UniProt Q07820, K194A/K197A/R201A); test: Protein-protein interaction assay MCL-1/Noxa BH3 peptide (MCL-1 assay, TR-FRET); assay type: binding; conditions: MCL-1 Assay IC50 (median)
Sequence of MCL-1 (Q07820 whole entry, looked up, stated change not applied, the tested form may be a part): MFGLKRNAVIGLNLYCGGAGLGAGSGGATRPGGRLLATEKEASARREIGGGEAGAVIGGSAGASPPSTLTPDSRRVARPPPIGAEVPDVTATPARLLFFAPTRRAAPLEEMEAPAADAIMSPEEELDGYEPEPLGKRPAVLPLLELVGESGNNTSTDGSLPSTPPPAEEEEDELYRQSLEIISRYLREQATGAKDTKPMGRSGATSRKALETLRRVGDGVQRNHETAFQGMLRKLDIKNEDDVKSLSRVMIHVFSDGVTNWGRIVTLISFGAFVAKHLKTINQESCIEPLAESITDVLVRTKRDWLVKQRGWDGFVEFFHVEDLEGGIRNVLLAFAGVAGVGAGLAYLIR
How it was run: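 IC50 came from a 4-parameter regression of the 665/620 nm emission ratio, normalized to DMSO controls. The mix held 1 nM MBP-fused MCL-1 (residues 173-321), a biotin-Noxa BH3 tracer and compound in Tris buffer pH 7, incubated 10 min plus 1 h at 22° C., then overnight at 4° C.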

SUDHL5 cells = test: Antiproliferation assay SUDHL5 (Assay 7); assay type: cell-based
How it was run: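 Cells were plated overnight at 37° C, then compound-treated for 72 h. Viability was measured by CellTiter-Glo luminescence.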

[1] = Homo sapiens, SU-DHL10, 3 h, caspase-3/7 induction, 3 h; read-out: Caspase SUDHL10 EC50 (median)
[2] = Homo sapiens, SU-DHL-5, 72 h, 72 h, CellTiter-Glo; read-out: Antiproli SUDHL5 IC50 (median)
[3] = caspase-3/7 induction, 3 h; read-out: Caspase SUDHL10 EC50 (median)
[4] = 72 h, CellTiter-Glo; read-out: Antiproli SUDHL5 IC50 (median)
[5] = read-out: Caspase SUDHL10 EC50 (median); caspase-3/7 induction, 3 h
[6] = read-out: Antiproli SUDHL5 IC50 (median); 72 h, CellTiter-Glo

SMILES: Cc1c2c(nn1C)C(CCO)OCCCCn1c(C(=O)O)c(CCCOc3cccc4ccccc34)c3ccc(Cl)c-2c31 (single isomer, unassigned; enantiomer 1) [Example 31, (+)-4-chloro-15-(2-hydroxyethyl)-2,3-dimethyl-7-{3-[(naphthalen-1-yl)oxy]propyl}-2,10,11,12,13,15-hexahydropyrazolo[4′,3′:9,10][1,6]oxazacycloundecino[8,7,6-hi]indole-8-carboxylic Acid (Enantiomer 1)]
EC50 (SUDHL10 cells; [3]): 240 nM
IC50 (MCL-1): 0.26 nM
IC50 (SUDHL5 cells; [4]): 240 nM

SMILES: CCc1c2c(nn1C)C(CCN1CCOCC1)OCCCCn1c(C(=O)O)c(CCCOc3cccc4cc(F)ccc34)c3ccc(F)c-2c31 (single isomer, unassigned; enantiomer 2) [Example 51, (−)-3-ethyl-4-fluoro-7-{3-[(6-fluoronaphthalen-1-yl)oxy]propyl}-2-methyl-15-[2-(morpholin-4-yl)ethyl]-2,10,11,12,13,15-hexahydropyrazolo[4′,3′:9,10][1,6]oxazacycloundecino[8,7,6-hi]indole-8-carboxylic Acid (Enantiomer 2)]
EC50 (SUDHL10 cells; [3]): 9800 nM
IC50 (MCL-1): 60 nM
IC50 (SUDHL5 cells; [4]): 2300 nM

SMILES: Cc1c2c(nn1C)C(CCN1CCOCC1)OCCCCn1c(C(=O)O)c(CCCOc3cccc4cc(F)ccc34)c3ccc(Cl)c-2c31 (racemic) [Example 16, (rac)-4-chloro-7-{3-[(6-fluoronaphthalen-1-yl)oxy]propyl}-2,3-dimethyl-15-[2-(morpholin-4-yl)ethyl]-2,10,11,12,13,15-hexahydropyrazolo[4′,3′:9,10][1,6]oxazacycloundecino[8,7,6-hi]indole-8-carboxylic Acid]
EC50 (SUDHL10 cells; [1]): 19 nM
IC50 (MCL-1): 2 nM
IC50 (SUDHL5 cells; [2]): 19 nM

SMILES: CCc1c2c(nn1C)C(CCO)OCCCCn1c(C(=O)O)c(CCCOc3cccc4cc(F)ccc34)c3ccc(Cl)c-2c31 (single isomer, unassigned; enantiomer 2) [Example 46, (−)-4-chloro-3-ethyl-7-{3-[(6-fluoronaphthalen-1-yl)oxy]propyl}-15-(2-hydroxyethyl)-2-methyl-2,10,11,12,13,15-hexahydropyrazolo[4′,3′:9,10][1,6]oxazacycloundecino[8,7,6-hi]indole-8-carboxylic Acid (Enantiomer 2)]
EC50 (SUDHL10 cells; [3]): 4000 nM
IC50 (MCL-1): 36 nM

SMILES: Cc1c2c(nn1C)C(CCN1CCOCC1)OCCCCn1c(C(=O)O)c(CCCOc3cccc4cc(F)ccc34)c3ccc(Cl)c-2c31 (single isomer, unassigned; enantiomer 2) [Example 18, 4-chloro-7-{3-[(6-fluoronaphthalen-1-yl)oxy]propyl}-2,3-dimethyl-15-[2-(morpholin-4-yl)ethyl]-2,10,11,12,13,15-hexahydropyrazolo[4′,3′:9,10][1,6]oxazacycloundecino[8,7,6-hi]indole-8-carboxylic Acid (Enantiomer 2)]
EC50 (SUDHL10 cells; [1]): 2300 nM
IC50 (MCL-1): 42 nM

SMILES: CCc1c2c(nn1C)C(CCC1CCOCC1)OCCCCn1c(C(=O)O)c(CCCOc3cccc4cc(F)ccc34)c3ccc(Cl)c-2c31 (racemic) [Example 60, (rac)-4-chloro-3-ethyl-7-{3-[(6-fluoronaphthalen-1-yl)oxy]propyl}-2-methyl-(15-rac)-[2-(oxan-4-yl)ethyl]-2,10,11,12,13,15-hexahydropyrazolo[4′,3′:9,10][1,6]oxazacycloundecino[8,7,6-hi]indole-8-carboxylic Acid]
EC50 (SUDHL10 cells; [1]): 77 nM
IC50 (SUDHL5 cells; [2]): 65 nM

SMILES: CCc1c2c(nn1C)C(CCN1CCC(F)(F)C1)OCCCCn1c(C(=O)O)c(CCCOc3cccc4cc(F)ccc34)c3ccc(Cl)c-2c31 (racemic) [Example 55, (rac)-4-chloro-(15-rac)-[2-(3,3-difluoropyrrolidin-1-yl)ethyl]-3-ethyl-7-{3-[(6-fluoronaphthalen-1-yl)oxy]propyl}-2-methyl-2,10,11,12,13,15-hexahydropyrazolo[4′,3′:9,10][1,6]oxazacycloundecino[8,7,6-hi]indole-8-carboxylic acid—2-hydroxypropane-1,2,3-tricarboxylic Acid Salt]
EC50 (SUDHL10 cells; [1]): 47 nM
IC50 (SUDHL5 cells; [2]): 67 nM

SMILES: CCc1c2c(nn1C)C(CCN1CCOCC1)OCCCCn1c(C(=O)O)c(CCCOc3cccc4ccccc34)c3ccc(F)c-2c31 (single isomer, unassigned; enantiomer 2) [Example 12, 3-ethyl-4-fluoro-2-methyl-15-[2-(morpholin-4-yl)ethyl]-7-{3-[(naphthalen-1-yl)oxy]propyl}-2,10,11,12,13,15-hexahydropyrazolo[4′,3′:9,10][1,6]oxazacycloundecino[8,7,6-hi]indole-8-carboxylic Acid—N-ethylethanamine Salt (Enantiomer 2)]
EC50 (SUDHL10 cells; [5]): 7100 nM
IC50 (SUDHL5 cells; [6]): 2600 nM

SMILES: Cc1c2c(nn1C)C(CCN1CCOCC1)OCCCCn1c(C(=O)O)c(CCCOc3cccc4ccccc34)c3ccc(F)c-2c31 (single isomer, unassigned; enantiomer 2) [Example 9, 4-fluoro-2,3-dimethyl-15-[2-(morpholin-4-yl)ethyl]-7-{3-[(naphthalen-1-yl)oxy]propyl}-2,10,11,12,13,15-hexahydropyrazolo[4′,3′:9,10][1,6]oxazacycloundecino[8,7,6-hi]indole-8-carboxylic Acid—N-ethylethanamine Salt (Enantiomer 2)]
EC50 (SUDHL10 cells; [5]): 12000 nM
IC50 (SUDHL5 cells; [6]): 4300 nM

SMILES: CCc1c2c(nn1C)C(CCN1CCOCC1)OCCCCn1c(C(=O)O)c(CCCOc3cccc4ccccc34)c3ccc(F)c-2c31 (single isomer, unassigned; enantiomer 1) [Example 11, 3-ethyl-4-fluoro-2-methyl-15-[2-(morpholin-4-yl)ethyl]-7-{3-[(naphthalen-1-yl)oxy]propyl}-2,10,11,12,13,15-hexahydropyrazolo[4′,3′:9,10][1,6]oxazacycloundecino[8,7,6-hi]indole-8-carboxylic Acid—N-ethylethanamine Salt (Enantiomer 1)]
EC50 (SUDHL10 cells; [5]): 190 nM
IC50 (SUDHL5 cells; [6]): 75 nM

Continued, values first:

EC50 (SUDHL10 cells; [1]): 150 nM
IC50 (MCL-1): 0.39 nM
IC50 (SUDHL5 cells; [2]): 140 nM
SMILES: CCc1c2c(nn1C)C(CCO)OCCCCn1c(C(=O)O)c(CCCOc3cccc4cc(F)ccc34)c3ccc(Cl)c-2c31 (racemic) [Example 44, (rac)-4-chloro-3-ethyl-7-{3-[(6-fluoronaphthalen-1-yl)oxy]propyl}-(15-rac)-(2-hydroxyethyl)-2-methyl-2,10,11,12,13,15-hexahydropyrazolo[4′,3′:9,10][1,6]oxazacycloundecino[8,7,6-hi]indole-8-carboxylic Acid]

EC50 (SUDHL10 cells; [1]): 5300 nM
IC50 (MCL-1): 1.3 nM
SMILES: CCc1c2c(nn1C)C(C1CC1)OCCCCn1c(C(=O)O)c(CCCOc3cccc4cc(F)ccc34)c3ccc(Cl)c-2c31 (racemic) [Example 38, (rac)-4-chloro-(15-rac)-cyclopropyl-3-ethyl-7-{3-[(6-fluoronaphthalen-1-yl)oxy]propyl}-2-methyl-2,10,11,12,13,15-hexahydropyrazolo[4′,3′:9,10][1,6]oxazacycloundecino[8,7,6-hi]indole-8-carboxylic Acid]

EC50 (SUDHL10 cells; [5]): 14000 nM
IC50 (SUDHL5 cells; [6]): 13000 nM
SMILES: CCc1c2c(nn1C)C(CC(C)(C)O)OCCCCn1c(C(=O)O)c(CCCOc3cccc4cc(F)ccc34)c3ccc(Cl)c-2c31 (single isomer, unassigned; enantiomer 21) [Example 54, (−)-4-chloro-3-ethyl-7-{3-[(6-fluoronaphthalen-1-yl)oxy]propyl}-15-(2-hydroxy-2-methylpropyl)-2-methyl-2,10,11,12,13,15-hexahydropyrazolo[4′,3′:9,10][1,6]oxazacycloundecino[8,7,6-hi]indole-8-carboxylic Acid—N-ethylethanamine Salt (Enantiomer 21]

EC50 (SUDHL10 cells; [3]): 9.9 nM
IC50 (SUDHL5 cells; [4]): 16 nM
SMILES: CCc1c2c(nn1C)C(CCN1CC(F)(F)C1)OCCCCn1c(C(=O)O)c(CCCOc3cccc4cc(F)ccc34)c3ccc(Cl)c-2c31 (single isomer, unassigned; (+)) [Example 78, (+)-4-chloro-15-[2-(3,3-difluoroazetidin-1-yl)ethyl]-3-ethyl-7-{3-[(6-fluoronaphthalen-1-yl)oxy]propyl}-2-methyl-2,10,11,12,13,15-hexahydropyrazolo[4′,3′:9,10][1,6]oxazacycloundecino[8,7,6-hi]indole-8-carboxylic Acid—N-ethylethanamine Salt]

EC50 (SUDHL10 cells; [3]): 6.6 nM
IC50 (SUDHL5 cells; [4]): 11 nM
SMILES: CCc1c2c(nn1C)C(CCC(C)(C)O)OCCCCn1c(C(=O)O)c(CCCOc3cccc4cc(F)ccc34)c3ccc(Cl)c-2c31 (single isomer, unassigned; enantiomer 1) [Example 75, (+)-4-chloro-3-ethyl-7-{3-[(6-fluoronaphthalen-1-yl)oxy]propyl}-15-(3-hydroxy-3-methylbutyl)-2-methyl-2,10,11,12,13,15-hexahydropyrazolo[4′,3′:9,10][1,6]oxazacycloundecino[8,7,6-hi]indole-8-carboxylic Acid—N-ethylethanamine Salt (Enantiomer 1)]
